Laboratory results from patent US20020086278A1, “CHROMOGENIC MEDIA CONTAINING BLOOD OR HEMIN” (priority 1999, published 2002).
Where two headings read alike, the source gives them in different places.

How the values were obtained:
Salmonella spp. (sasp) = format: cell-based; conditions: for Colony Color: CO2
[1] = tested on: Citrobacter freundii (cifr); experiment: Example 3: colony color on chromogenic TSA II with 5% sheep blood (chromogen in medium); format: cell-based; conditions: for Colony Color: CO2
[2] = Precipitate of chromogen on pre-plated media; format: physicochemical; conditions: After 1 week
Procedure: 50 μl of each chromogen solution was added to the surface of each of the following pre-plated media (one chromogen solution per plate):
The solution was dispersed using a spreader and allowed to dry 3-4 hours in a hood.

[3] = tested on: Entercoccus faecalis (enfa); experiment: Example 3: colony color on chromogenic TSA II with 5% sheep blood (chromogen in medium); format: cell-based; conditions: for Colony Color: CO2
S pyogenes (stpy) = experiment: as above; format: cell-based; conditions: for Colony Color on Various Chromogenic TSA II with 5% Sheep Blood: 18 h
S. agalactiae 12386 = experiment: Example 2: effect of incubation conditions on colony color formation; format: cell-based, Streptococcus agalactiae; conditions: 0.004 g/plate, 24 h, CO2
[4] = tested on: Staphylococcus aureus (stau); experiment: Example 3: colony color on chromogenic TSA II with 5% sheep blood (chromogen in medium); format: cell-based
Escherichia coli 25922 = experiment: Example 1: growth and colony color on plates surface-spread with chromogen; format: cell-based; conditions: TSA II 5SB; E. coli 25922
[5] = tested on: Pseudomonas aeruginosa (psae); experiment: Example 3: colony color on chromogenic TSA II with 5% sheep blood (chromogen in medium); format: cell-based; conditions: CO2
E. faecium (enfu) = experiment: as above; format: cell-based
N. gonorrhoeae 35201 = experiment: Example 1: growth and colony color on plates surface-spread with chromogen; format: cell-based; conditions: Substrate on Choclate II Agar; N. gono. 35201
[6] = tested on: Streptococcus pneumoniae 6303; experiment: as above; format: cell-based; conditions: TSA Plain; S. pneu: 6303
[7] = tested on: Gardnerella vaginalis 14019; experiment: as above; format: cell-based; conditions: Substrate on Choclate II Agar; G. vag. 14019
[8] = tested on: Branhamella catarrhalis 25238; experiment: as above; format: cell-based; conditions: TSA Plain; B. catt 25258
[9] = tested on: Streptococcus agalactiae (stag); experiment: Example 3: colony color on chromogenic TSA II with 5% sheep blood (chromogen in medium); format: cell-based
[10] = tested on: E. coli (non-O157) (esco); format: cell-based
[11] = tested on: Serratia marcescens (sema); experiment: Example 3: colony color on chromogenic TSA II with 5% sheep blood (chromogen in medium); format: cell-based; conditions: for Colony Color: sema 13880, CO2
milu 9341 = experiment: as above; format: cell-based
[12] = tested on: Staphylococcus Coag Neg (step); experiment: as above; format: cell-based; conditions: for Colony Color on Various Chromogenic TSA II with 5% Sheep Blood: 18 h; for Colony Color: 21 h
[13] = tested on: Branhamella catarrhalis (brca); experiment: as above; format: cell-based; conditions: for Colony Color: CO2
S. milleri (stmi) = experiment: as above; format: cell-based; conditions: for Colony Color: stmi 6249, 21 h
S. pneumoniae (stpn) = experiment: as above; format: cell-based; conditions: for Colony Color on Various Chromogenic TSA II with 5% Sheep Blood: 18 h
Candida albicans (caal) = experiment: as above; format: cell-based; conditions: for Colony Color: caal 10231
[14] = chromogenic TSA II with 5% Sheep Blood, 0.1 g/l, 2 strains tested
[15] = chromogenic TSA II with 5% Sheep Blood, 0.1 g/l, 5 strains tested
[16] = chromogenic TSA II with 5% Sheep Blood, 0.1 g/l, 1 strain tested
[17] = chromogenic TSA II with 5% Sheep Blood, 0.1 g/l, 3 strains tested

OC[C@H]1O[C@@H](Oc2c[nH]c3ccc(Br)c(Cl)c23)[C@H](O)[C@@H](O)[C@@H]1O [X-Glucoside, 5-Br-4-Cl-3-indolyl-β-D-glucopyranoside]
Colony Color (Summary) (Salmonella spp. (sasp); [14]): 0
Colony Color (Salmonella spp. (sasp); saty 19430, 18 h): 0
Colony Color (Salmonella spp. (sasp); saty 19430, 21 h): 0
Colony Color (Salmonella spp. (sasp); satym 14028, 18 h): 0
Colony Color (Salmonella spp. (sasp); satym 14028, 21 h): 0
Colony Color (Summary) [1, 14]: 0
Colony Color ([1]; cifr 8454, 18 h): 0
Colony Color ([1]; cifr 8454, 21 h): 0
Colony Color ([1]; cifr 33128, 18 h): 0
Colony Color ([1]; cifr 33128, 21 h): 0
Precipitate on plates after 1 week [2]: some precipitate was evident
Colony Color (Summary) ([3]; chromogenic TSA II with 5% Sheep Blood, 0.1 g/l, 6 strains tested): +
Colony Color ([3]; enfa 597, 18 h): db
Colony Color ([3]; enfa 10741, 18 h): db
Colony Color ([3]; enfa 10741, 21 h): db
Colony Color ([3]; enfa 12953, 18 h): db
Colony Color ([3]; enfa 12953, 21 h): db
Colony Color ([3]; enfa 14506, 18 h): db
Colony Color ([3]; enfa 14506, 21 h): db
Colony Color ([3]; enfa 29212, 18 h): db
Colony Color ([3]; enfa 29212, 21 h): db
Colony Color (S pyogenes (stpy); 4 of 7 S. pyogenes, X-glucoside TSA II): light grey blue
Colony Color (S pyogenes (stpy); stpy 1027, CO2, 21 h): 0
Colony Color (S pyogenes (stpy); stpy 1028, CO2, 21 h): lgb
Colony Color (S pyogenes (stpy); stpy 1029, CO2, 21 h): lgb
Colony Color (S pyogenes (stpy); stpy 1030, CO2, 21 h): gb
Colony Color (S pyogenes (stpy); stpy 19615, CO2, 21 h): gb
Colony Color (S pyogenes (stpy); stpy 19615, air, 21 h): lgb
Colony Color (S pyogenes (stpy); stpy 49117, CO2, 21 h): 0
Colony Color (S pyogenes (stpy); stpy 49117, air, 21 h): 0
Colony Color on Various Chromogenic TSA II with 5% Sheep Blood (S pyogenes (stpy); stpy 51339, CO2): 0
Colony Color (S pyogenes (stpy); stpy 51339, CO2, 21 h): 0
Colony Color (S pyogenes (stpy); stpy 51339, air, 21 h): lgb
Colony Color on Various Chromogenic TSA II with 5% Sheep Blood (S pyogenes (stpy); stpy t027, CO2): 0
Colony Color on Various Chromogenic TSA II with 5% Sheep Blood (S pyogenes (stpy); stpy t028, CO2): 0
Colony Color on Various Chromogenic TSA II with 5% Sheep Blood (S pyogenes (stpy); stpy t029, CO2): 0
Colony Color on Various Chromogenic TSA II with 5% Sheep Blood (S pyogenes (stpy); stpy t030, CO2): lgb
Colony Color (S. agalactiae 12386; Chocolate II Agar): blue (d)
Colony Color (S. agalactiae 12386; TSA II 5% Sheep Blood): blue (d)
Colony Color (Summary) [4, 15]: 0
Colony Color ([4]; stau 1006, CO2, 21 h): 0
Colony Color ([4]; stau 1007, CO2, 21 h): 0
Colony Color ([4]; stau 1008, CO2, 21 h): 0
Colony Color ([4]; stau 1009, CO2, 21 h): 0
Colony Color ([4]; stau 25923, CO2, 18 h): 0
Colony Color ([4]; stau 25923, CO2, 24 h): 0
Colony Color ([4]; stau 25923, air, 24 h): 0
Colony Color on Various Chromogenic TSA II with 5% Sheep Blood ([4]; stau t006, CO2, 18 h): 0
Colony Color on Various Chromogenic TSA II with 5% Sheep Blood ([4]; stau t007, CO2, 18 h): 0
Colony Color on Various Chromogenic TSA II with 5% Sheep Blood ([4]; stau t008, CO2, 18 h): 0
Colony Color on Various Chromogenic TSA II with 5% Sheep Blood ([4]; stau t009, CO2, 18 h): 0
Growth (Escherichia coli 25922): 4
Colony Color ([5]; psae 9027, 18 h): 0
Colony Color ([5]; psae 9027, 21 h): 0
Colony Color ([5]; psae 15442, 18 h): 0
Colony Color ([5]; psae 15442, 21 h): 0
Colony Color ([5]; psae 33607, 18 h): 0
Colony Color ([5]; psae 33607, 21 h): lgb
Colony Color (Summary) (E. faecium (enfu); [16]): +
Colony Color (E. faecium (enfu); enfu 49032, CO2, 18 h): db
Growth (N. gonorrhoeae 35201): <
Growth [6]: <
Growth [7]: <
Growth [8]: <
Colony hemolytic activity ([9]; Group B Strep on X-glucoside TSA II): slightly reduced
Colony Color ([9]; Group B Strep, 3 of 3 strains, X-glucoside TSA II): blue
Colony Color (Summary) [9, 17]: +
CAMP test ([9]; on X-glucoside TSA II): works well
Colony Color ([9]; stag 4768, air, 21 h): lb
Colony Color (Summary) [10, 17]: 0
Colony Color ([10]; esco 11775, CO2, 18 h): 0
Colony Color ([10]; esco 11775, CO2, 21 h): 0
Colony Color ([10]; esco 25922, CO2, 24 h): 0
Colony Color ([10]; esco 25922, air, 24 h): 0
Colony Color ([10]; esco 33605, CO2, 18 h): 0
Colony Color ([10]; esco 33605, CO2, 21 h): 0
Colony Color (Summary) [11, 16]: +
Colony Color ([11]; 18 h): bg
Colony Color ([11]; 21 h): gb
Colony Color (milu 9341; CO2, 18 h): ly
Colony Color (milu 9341; CO2, 21 h): 0
Colony Color (Summary) [12, 15]: 0
Colony Color on Various Chromogenic TSA II with 5% Sheep Blood ([12]; step 12228, CO2): 0
Colony Color ([12]; step 12228, CO2): 0
Colony Color ([12]; step 12228, air): 0
Colony Color on Various Chromogenic TSA II with 5% Sheep Blood ([12]; step cdc1, CO2): 0
Colony Color ([12]; step cdc1, CO2): 0
Colony Color ([12]; step cdc1, air): 0
Colony Color ([12]; step cdc2, CO2): 0
Colony Color ([12]; step cdc2, air): 0
Colony Color ([12]; step cdc3, CO2): 0
Colony Color ([12]; step cdc3, air): 0
Colony Color on Various Chromogenic TSA II with 5% Sheep Blood ([12]; step cdc4, CO2): 0
Colony Color ([12]; step cdc4, CO2): 0
Colony Color ([12]; step cdc4, air): 0
Colony Color on Various Chromogenic TSA II with 5% Sheep Blood ([12]; stha cdc2, CO2): 0
Colony Color on Various Chromogenic TSA II with 5% Sheep Blood ([12]; stsa cdc3, CO2): 0
Colony Color ([13]; brca 25238, 18 h): 0
Colony Color ([13]; brca 25238, 21 h): 0
Colony Color ([13]; brca 25240, 18 h): 0
Colony Color ([13]; brca 25240, 21 h): 0
Colony Color (Summary) [13, 14]: 0
Colony Color (Summary) (S. milleri (stmi); [14]): 0
Colony Color on Various Chromogenic TSA II with 5% Sheep Blood (S. milleri (stmi); stmi 6242, CO2, 18 h): 0
Colony Color (S. milleri (stmi); CO2): 0
Colony Color (S. milleri (stmi); air): 0
Colony Color (S. pneumoniae (stpn); stpn 1259, CO2, 21 h): 0
Colony Color (S. pneumoniae (stpn); stpn 1260, CO2, 21 h): 0
Colony Color (S. pneumoniae (stpn); stpn 1628, CO2, 21 h): 0
Colony Color (S. pneumoniae (stpn); stpn 6303, CO2, 24 h): 0
Colony Color (S. pneumoniae (stpn); stpn 6303, air, 24 h): 0
Colony Color (S. pneumoniae (stpn); stpn 6305, CO2, 24 h): 0
Colony Color (S. pneumoniae (stpn); stpn 6305, air, 24 h): 0
Colony Color on Various Chromogenic TSA II with 5% Sheep Blood (S. pneumoniae (stpn); stpn t259, CO2): 0
Colony Color on Various Chromogenic TSA II with 5% Sheep Blood (S. pneumoniae (stpn); stpn t260, CO2): 0
Colony Color on Various Chromogenic TSA II with 5% Sheep Blood (S. pneumoniae (stpn); stpn t331, CO2): 0
Colony Color on Various Chromogenic TSA II with 5% Sheep Blood (S. pneumoniae (stpn); stpn t628, CO2): bg
Colony Color (Candida albicans (caal); CO2, 18 h): 0
Colony Color (Candida albicans (caal); CO2, 24 h): 0
Colony Color (Candida albicans (caal); air, 24 h): 0
Colony Color (Summary) (Candida albicans (caal); [14]): 0
